This is an account of results in the supplement of paper PMC4862054.

Holding throughout (settings): incubation time: 72 h
The test system of assay [1] is CAL-148. The experiment in a line: normalised viability (% of control), CellTiter-Blue; higher = more viable cells (about 100 = DMSO control). The method, then: (§1)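 DSRT, CellTiter-Blue viability, 72 h incubation. Signal is normalised to DMSO and benzethonium chloride controls. Value is the normalised response at dose 9.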
A general note: Alamar Blue is a resazurin reagent that responds to reducing activity.

Assay [2] concerns HDQ-P1. The description is as above. The method, then:
as §1

For assay [3], the system named is CAL-51. Described as above. The method, then:
as §1

For assay [4], the system named is CAL-85-1. Described as above. As to the method:
as §1

The test system of assay [5] is MDA-MB-453. The assay is described as above. As to the method: as §1
Assay [6] has as its system DU-4475. Described as above. The method, then: as §1
The subject of assay [7] is CAL-148. In words: normalised viability (% of control), CellTiter-Blue; higher = more viable cells (100 = DMSO, 0 = benzethonium chloride kill control). The method, then:
(§2)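 DSRT, CellTiter-Blue viability, 72 h incubation. Signal is normalised to DMSO and benzethonium chloride controls. Value is the normalised response at dose 1.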

The subject of assay [8] is HDQ-P1. The description is as above. The method, then: as §2
A further assay has as its system HCC1937. Described as above. The method, then: as §2
In another assay the test system is BT-474. The description is as above. As to the method: as §2
The subject of another assay is HCC1143. The description is as above. The method, then: as §2
Another assay has as its system MFM-223. The description is as above. As to the method: as §2
In a further assay the test system is CAL-120. The assay is described as above. As to the method: as §2
A further assay concerns MDA-MB-468. The assay is described as above. The method, then: as §2
For assay [9], the system named is CAL-51. The assay is described as above. The method, then: as §2
The test system of another assay is MDA-MB-436. The description is as above. The method, then: as §2
Assay [10] deals with CAL-85-1. The assay is described as above. The method, then:
as §2

The subject of assay [11] is MDA-MB-453. Described as above. As to the method: as §2
The next assay relates to SK-BR-3. The description is as above. As to the method:
as §2

Another assay relates to HCC1599. Described as above. The method, then: as §2
Another assay relates to MDA-MB-231. The assay is described as above. As to the method: as §2
In the next assay the test system is Hs578T. The assay is described as above. As to the method: as §2
The subject of assay [12] is DU-4475. The description is as above. The method, then:
as §2

The test system of another assay is BT-549. Described as above. The method, then: as §2
The subject of assay [13] is CAL-148. In words: normalised viability (% of control), CellTiter-Blue; higher = more viable cells (about 100 = DMSO control). The method, then:
(§3)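 DSRT, CellTiter-Blue viability, 72 h incubation. Signal is normalised to DMSO and benzethonium chloride controls. Value is the normalised response at dose 8.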
This is another data set of the same source.

Assay [14] deals with HDQ-P1. The description is as above. The method, then: as §3
The source holds these as a separate data set.

Assay [15] deals with CAL-51. The assay is described as above. As to the method:
as §3
The source holds these as a separate data set.

The subject of assay [16] is CAL-85-1. Described as above. The method, then:
as §3
This is another data set of the same source.

Assay [17] has as its system MDA-MB-453. The description is as above. The method, then:
as §3
This is another data set of the same source.

Assay [18] relates to DU-4475. The assay is described as above. As to the method: as §3
This is another data set of the same source.

`CN(C)C/C=C/C(=O)Nc1cc2c(Nc3ccc(F)c(Cl)c3)ncnc2cc1O[C@H]1CCOC1` [Afatinib] (10000 nM): the normalised viability in the assay on CAL-148 [1] amounted to 40.7%; in the assay with HDQ-P1 [2], 4.6%; in the assay on CAL-51 [3], 50.6%; in the assay with CAL-85-1 [4], 13.6%; with MDA-MB-453 [5], 14.4%; in the assay with DU-4475 [6], 67.8%.
For `COc1cc(Nc2ncc3c(n2)-c2ccc(Cl)cc2C(c2c(F)cccc2OC)=NC3)ccc1C(=O)O` [MLN8237] (10000 nM), the normalised viability in the assay on CAL-148 [1] was 26.2%; in the assay with HDQ-P1 [2], 40.9%; with CAL-51 [3], 18.8%; in the assay with CAL-85-1 [4], 56.3%; in the assay with MDA-MB-453 [5], 44.8%; in the assay with DU-4475 [6], 21.9%.
For the molecule `COc1cc(Nc2ncc3c(n2)-c2ccc(Cl)cc2C(c2c(F)cccc2OC)=NC3)ccc1C(=O)O` [MLN8237] (1 nM), the normalised viability with CAL-148 [7] is 102%; in the assay on HDQ-P1 [8], 88.2%; with HCC1937, 101%; in the assay with BT-474 it was 109%; in the assay with HCC1143, 96.3%; in the assay on MFM-223, 88.5%. Further, the normalised viability in the assay on CAL-120 came to 92.1%; in the assay on MDA-MB-468 it was 105%; in the assay on CAL-51 [9] it was 99.7%; in the assay with MDA-MB-436 it was 119%; in the assay with CAL-85-1 [10] it was 95.7%; in the assay with MDA-MB-453 [11] it was 93.8%. The normalised viability with SK-BR-3 came out at 103%; with HCC1599, 114%; with MDA-MB-231 it was 109%; with Hs578T it was 99.4%; in the assay with DU-4475 [12] it was 101%; in the assay with BT-549 it was 115%.
Consider `CN1CCC(COc2cnc(-c3cccc(Cn4nc(-c5cccc(C#N)c5)ccc4=O)c3)nc2)CC1` (10000 nM), for which the normalised viability in the assay with CAL-148 [1] was determined as 25.8%; with HDQ-P1 [2] it was 4.94%; with CAL-51 [3], 6.25%; with CAL-85-1 [4], 6.29%; in the assay on MDA-MB-453 [5], 3.23%; in the assay with DU-4475 [6], 2.2%.
Turning to `CO[C@H]1C[C@@H]2CC[C@@H](C)[C@@](O)(O2)C(=O)C(=O)N2CCCC[C@H]2C(=O)O[C@H]([C@H](C)C[C@@H]2CC[C@@H](OC(=O)C(C)(CO)CO)[C@H](OC)C2)CC(=O)[C@H](C)/C=C(\C)[C@@H](O)[C@@H](OC)C(=O)[C@H](C)C[C@H](C)/C=C/C=C/C=C/1C` [Temsirolimus] (1000 nM), the normalised viability is 36.1% in the assay with CAL-148 [1]; 80.6% in the assay on HDQ-P1 [2]; 32.6% in the assay with CAL-51 [3]; 57.7% in the assay with CAL-85-1 [4]; 22.8% in the assay on MDA-MB-453 [5]; 49.6% in the assay on DU-4475 [6].
Turning to `COc1cccc2cc(-c3nc([C@H]4CC[C@H](C(=O)O)CC4)n4ncnc(N)c34)[nH]c12` [OSI-027] (3000 nM), the normalised viability is 46.4% in the assay with CAL-148 [13]; 31.1% in the assay with HDQ-P1 [14]; 42.9% with CAL-51 [15]; 32.9% in the assay on CAL-85-1 [16]; 19.9% in the assay with MDA-MB-453 [17]; 69.1% in the assay on DU-4475 [18].
For the molecule `OC[C@H]1O[C@@H](n2cnc3c2N=CNC[C@H]3O)C[C@@H]1O` [Pentostatin] (3000 nM), the normalised viability is 112% with CAL-148 [13]; 96.8% in the assay with HDQ-P1 [14]; 95.8% with CAL-51 [15]; 96.4% in the assay with CAL-85-1 [16]; 96.8% in the assay on MDA-MB-453 [17]; 90.9% in the assay with DU-4475 [18].
With `N#CC[C@H](C1CCCC1)n1cc(-c2ncnc3[nH]ccc23)cn1` [Ruxolitinib] (3000 nM), the normalised viability was found to be 87.7% with CAL-148 [13]; 105% in the assay with HDQ-P1 [14]; 105% in the assay on CAL-51 [15]; 114% in the assay with CAL-85-1 [16]; 94% in the assay on MDA-MB-453 [17]; 114% with DU-4475 [18].
